# Data from article PMC10854695, “Using Flavonoid Substitution Status to Predict Anticancer Effects in Human Melanoma Cancers: An In Vitro Study” (Cancers, 2024).
# Columns and labels:
# A375 melanoma cells [1] = assay: Neutral red uptake (NRU) assay, A375; conditions: Homo sapiens, read-out: IC50, cytotoxic activity, NRU assay
# Procedure: (§1) The NRU (neutral red uptake) was conducted as previously described by Szoka and co-workers, with some modifications [22]. Briefly, melanoma cells and fibroblasts were seeded in microplates at the density of 1 × 10^4 cells per well and allowed to adhere for 24 h. […] After treatment, the culture medium was replaced with a neutral red solution (40 µg/mL). An additional 2 h of incubation was performed. The neutral red solution was then removed and the neutral red accumulated in the cells was dissolved in 50% EtOH with 1% of the glacial acetic acid. The absorbance was estimated at 540 nm and IC50 values were calculated using GraphPad Prism software (GraphPad Software, San Diego, CA, USA).
# C32 melanoma cells [2] = assay: Neutral red uptake (NRU) assay, C32; conditions: Homo sapiens
# Procedure: as §1
# in vitro = conditions: human
# C32 melanoma cells [3] = assay: MTT cell viability assay, C32; conditions: Homo sapiens, read-out: IC50, cytotoxic activity, MTT test;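 note: MTT added for 2 h, cells lysed in DMSO, absorbance read at 570 nm, compound vehicle kept at or below 0.1% DMSO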
# Procedure: (§2) The MTT colorimetric assay was performed as a preliminary evaluation of the cytotoxicity of the selected flavonoids according to the method described and validated by Strawa et al. [21]. Briefly, melanoma cells and fibroblasts were seeded in 96-well microplates at a density of 1 × 10^4 cells per well. Fibroblasts were used as a control cell line in order to assess the selectivity of the compounds. […] Subsequently, the cells were washed with PBS, incubated with MTT solution for 2 h, and lysed with dimethyl sulfoxide (DMSO) supplemented with 1% (v/v) Sorensen’s glycine buffer. The absorbance was measured using a microplate reader (EPOCH 2, BioTek, Winooski, VT, USA) at a wavelength of 570 nm. The compounds were used at a final DMSO concentration of no more than 0.1% (v/v) in each well. The results were generated from at least three independent experiments. […] The IC50 values were calculated with GraphPad Prism 9 software (GraphPad Software, San Diego, CA, USA).
# [4] = Neutral red uptake (NRU) assay, normal cells; conditions: human
# Procedure: as §1
# A375 melanoma cells [5] = assay: MTT cell viability assay, A375; conditions: Homo sapiens;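 note: Read-out is formazan absorbance at 570 nm after 2 h with MTT, with compounds in at most 0.1% v/v DMSO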
# Procedure: as §2
# [6] = MTT cell viability assay, normal cells; conditions: human;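 note: fibroblasts served as non-cancer comparison line for selectivity versus melanoma cells, MTT reduction read as absorbance at 570 nm after 2 h dye exposure, compounds in ≤0.1% DMSO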
# [7] = C32, 24 h, read-out: IC50, cytotoxic activity, NRU assay, C32, 24 h
# [8] = C32, 48 h, read-out: IC50, cytotoxic activity, NRU assay, C32, 48 h
# [9] = C32, 72 h, read-out: IC50, cytotoxic activity, NRU assay, C32, 72 h
# [10] = human skin fibroblasts (CCD25Sk)
# [11] = A-375, 24 h, read-out: IC50, cytotoxic activity, MTT test, A375, 24 h
# [12] = A-375, 48 h, read-out: IC50, cytotoxic activity, MTT test, A375, 48 h
# [13] = A-375, 72 h, read-out: IC50, cytotoxic activity, MTT test, A375, 72 h
# [14] = C32, 24 h, read-out: IC50, cytotoxic activity, NRU assay
# [15] = C32, 48 h, read-out: IC50, cytotoxic activity, NRU assay
# [16] = C32, 72 h, read-out: IC50, cytotoxic activity, NRU assay
# [17] = A-375, 24 h, read-out: IC50, cytotoxic activity, MTT test
# [18] = A-375, 48 h, read-out: IC50, cytotoxic activity, MTT test
# [19] = A-375, 72 h, read-out: IC50, cytotoxic activity, MTT test
Structure (SMILES),"IC50 (A375 melanoma cells [1]; A-375, 24 h) [µM]","IC50 (A375 melanoma cells [1]; A-375, 48 h) [µM]","IC50 (A375 melanoma cells [1]; A-375, 72 h) [µM]",IC50 (C32 melanoma cells [2]; [7]) [µM],IC50 (C32 melanoma cells [2]; [8]) [µM],IC50 (C32 melanoma cells [2]; [9]) [µM],"IC50 (C32 melanoma cells [3]; C32, 24 h) [µM]","IC50 (C32 melanoma cells [3]; C32, 48 h) [µM]","IC50 (C32 melanoma cells [3]; C32, 72 h) [µM]","IC50 at 24 h [4, 10] [µM]","IC50 at 48 h [4, 10] [µM]","IC50 at 72 h [4, 10] [µM]",IC50 (A375 melanoma cells [5]; [11]) [µM],IC50 (A375 melanoma cells [5]; [12]) [µM],IC50 (A375 melanoma cells [5]; [13]) [µM],"IC50 at 24 h [6, 10] [µM]","IC50 at 48 h [6, 10] [µM]","IC50 at 72 h [6, 10] [µM]",further results
"O=c1cc(-c2ccc(O)c(O)c2)oc2cc(OC3OC(CO)C(O)C(O)C3O)cc(O)c12 (stereo not drawn) [Compound 7, luteolin 7-O-glucoside]",> 200,56.7 ± 3.8,41.5 ± 3.3,> 200,29.6 ± 2,23 ± 2.1,> 200,60.5 ± 4.6,40.7 ± 2.9,> 200,100 to 200,100 to 200,> 200,> 200,37.1 ± 3,–,–,–,IC50 at 24 h (in vitro): > 200 µM; IC50 at 48 h (in vitro): > 200 µM; IC50 at 72 h (in vitro): > 200 µM
"O=C(O)C1OC(Oc2cc(O)c3c(=O)cc(-c4ccc(O)c(O)c4)oc3c2)C(O)C(O)C1O (stereo not drawn) [Compound 8, luteolin 7-O-glucuronide]",> 200,> 200,> 200,> 200,> 200,> 200,> 200,> 200,> 200,> 200,> 200,> 200,> 200,> 200,> 200,–,–,–,IC50 at 24 h (in vitro): > 200 µM; IC50 at 48 h (in vitro): > 200 µM; IC50 at 72 h (in vitro): > 200 µM
"O=c1c(O[C@@H]2O[C@H](CO)[C@@H](O)[C@H](O)[C@H]2O)c(-c2ccc(O)cc2)oc2cc(O)cc(O)c12 [Compound 20, kaempferol 3-O-glucoside]",> 200,> 200,> 200,> 200,> 200,> 200,> 200,> 200,> 200,> 200,> 200,> 200,94.2 ± 6.9,46.9 ± 3.5,21.5 ± 2.2,> 200,> 200,> 200,–
"O=c1c(O)c(-c2ccc(O)c(O)c2)oc2cc(O)cc(O)c12 [Compound 24, quercetin]",100 to 200,84.7 ± 6.5,79.2 ± 7.3,> 200,58 ± 3.5,47.5 ± 4.3,> 200,> 200,68.1 ± 4.6,> 200,92.6 ± 4.2,36.4 ± 0.23,> 200,> 200,74.4 ± 5,> 200,> 200,36.1 ± 2,–
"COc1cc(O)c2c(=O)c(O)c(-c3ccc(O)c(O)c3)oc2c1 [Compound 25, 7-methoxyquercetin]",> 200,63.4 ± 4.8,43.7 ± 3.5,> 200,55.4 ± 4.3,28.4 ± 2.5,> 200,100 to 200,37.7 ± 2.5,> 200,66.3 ± 5.6,38.4 ± 3.4,100 to 200,42.1 ± 3,25.1 ± 2.3,100 to 200,45.3 ± 2.3,35.7 ± 2.9,–
"COc1cc(-c2oc3cc(O)cc(O)c3c(=O)c2O)ccc1O [Compound 26, 3′-methoxyquercetin]",> 200,100 to 200,78.1 ± 6.5,–,–,–,> 200,100 to 200,49.3 ± 3.6,–,–,–,–,–,–,–,–,–,IC50 (C32 melanoma cells [2]; [14]): > 200 µM; IC50 (C32 melanoma cells [2]; [15]): 100 to 200 µM; IC50 (C32 melanoma cells [2]; [16]): 65.1 ± 4 µM; IC50 at 24 h [6]: 100 to 200 µM; IC50 at 48 h [6]: 68.5 ± 5.4 µM; IC50 at 72 h [6]: 46.2 ± 3.3 µM; IC50 at 24 h [4]: > 200 µM; IC50 at 48 h [4]: 78.7 ± 5.5 µM; IC50 at 72 h [4]: 69.2 ± 4.6 µM; IC50 (A375 melanoma cells [5]; [17]): 86.3 ± 5.9 µM; IC50 (A375 melanoma cells [5]; [18]): 68.5 ± 3.9 µM; IC50 (A375 melanoma cells [5]; [19]): 50.8 ± 4 µM
"O=C(O)C1OC(Oc2c(-c3ccc(O)c(O)c3)oc3cc(O)cc(O)c3c2=O)C(O)C(O)C1O (stereo not drawn) [Compound 27, quercetin 3-O-glucuronide]",> 200,> 200,> 200,> 200,> 200,100 to 200,> 200,> 200,> 200,> 200,> 200,> 200,> 200,> 200,> 200,> 200,> 200,> 200,–
"C[C@@H]1O[C@@H](OC[C@H]2O[C@@H](Oc3c(-c4ccc(O)c(O)c4)oc4cc(O)cc(O)c4c3=O)[C@H](O)[C@@H](O)[C@@H]2O)[C@H](O)[C@H](O)[C@H]1O [Compound 28, quercetin 3-O-rutinoside]",> 200,> 200,> 200,> 200,> 200,> 200,> 200,> 200,> 200,> 200,> 200,> 200,> 200,57 ± 3.1,57.8 ± 4.8,> 200,> 200,> 200,–
"CC1OC(OCC2OC(Oc3c(-c4ccc(O)c(O)c4)oc4cc(OC5OC(CO)C(O)C(O)C5O)cc(O)c4c3=O)C(O)C(O)C2O)C(O)C(O)C1O (stereo not drawn) [Compound 29, quercetin 3-O-rutinoside-7-O-glucoside]",> 200,> 200,> 200,> 200,> 200,> 200,> 200,> 200,> 200,> 200,> 200,> 200,> 200,> 200,> 200,> 200,> 200,> 200,–
"COc1cc(-c2cc(=O)c3c(O)cc(O)cc3o2)cc(OC)c1O [Compound 31, tricin]",> 200,> 200,> 200,–,–,–,> 200,100 to 200,100 to 200,–,–,–,–,–,–,–,–,–,IC50 (C32 melanoma cells [2]; [14]): > 200 µM; IC50 (C32 melanoma cells [2]; [15]): > 200 µM; IC50 (C32 melanoma cells [2]; [16]): > 200 µM; IC50 at 24 h [6]: 100 to 200 µM; IC50 at 48 h [6]: 80.3 ± 6.6 µM; IC50 at 72 h [6]: 56.4 ± 4.7 µM; IC50 at 24 h [4]: > 200 µM; IC50 at 48 h [4]: > 200 µM; IC50 at 72 h [4]: > 200 µM; IC50 (A375 melanoma cells [5]; [17]): > 200 µM; IC50 (A375 melanoma cells [5]; [18]): 100 to 200 µM; IC50 (A375 melanoma cells [5]; [19]): 100 to 200 µM
"O=c1c(O)c(-c2cc(O)c(O)c(O)c2)oc2cc(O)ccc12 [Compound 32, robinetin]",> 200,> 200,> 200,> 200,> 200,> 200,> 200,> 200,> 200,> 200,> 200,> 200,> 200,> 200,100 to 200,> 200,> 200,> 200,–
"COc1ccc(C2CC(=O)c3c(O)cc(OC4OC(COC5OC(C)C(O)C(O)C5O)C(O)C(O)C4O)cc3O2)cc1O (stereo not drawn) [Compound 34, hesperetin 7-O-rutinoside]",> 200,> 200,> 200,> 200,> 200,> 200,> 200,> 200,> 200,> 200,> 200,> 200,> 200,> 200,> 200,> 200,> 200,> 200,–
"COc1ccc(C2CC(=O)c3c(O)cc(OC4OC(CO)C(O)C(O)C4OC4OC(C)C(O)C(O)C4O)cc3O2)cc1O (stereo not drawn) [Compound 35, hesperetin 7-O-neohesperidoside]",> 200,> 200,> 200,> 200,> 200,> 200,> 200,> 200,> 200,> 200,> 200,> 200,> 200,> 200,> 200,> 200,> 200,> 200,–
"O=c1c(-c2ccc(O)cc2)coc2cc(O)ccc12 [Compound 36, daidzein]",> 200,> 200,> 200,> 200,> 200,> 200,> 200,> 200,> 200,> 200,> 200,> 200,> 200,> 200,> 200,> 200,> 200,> 200,–
